Results from ChEMBL document CHEMBL3885861, “Open TG-GATES”.

Species: Rattus norvegicus
Assay: Open TG-GATES - Regimen: Daily Repeat
Assay type: toxicity, organism-based, Sprague-Dawley
Set-up: regimen Daily Repeat, gender Male, age 6 weeks
Conditions: in vivo, po, 50 mg/kg, route gavage, dose level Low; for APTT / Bas / Eos / Fbg / Hb / Ht / Lym / MCH / MCHC / MCV / Mono / Neu / PT / Plat / RBC / Ret / WBC: tissue Blood; for KIDNEY_L / KIDNEY_R / KIDNEY_TOTAL: tissue Kidney; for LIVER: tissue Liver; for A/G / ALP / ALT / AST / BUN / CRE / Ca / Cl / DBIL / GLC / IP / K / LDH / Na / PL / RALB / TBIL / TC / TG / TP / gamma-GTP: tissue Plasma

SMILES: CN1C(=O)CCS(=O)(=O)C1c1ccc(Cl)cc1 (configuration not stated) [CHLORMEZANONE]
- TERMINAL_BW (72 h, time 3 day): 226.8 g
- APTT (72 h, time 3 day): 15.5 s
- Bas (72 h, time 3 day): 0%
- Eos (72 h, time 3 day): 1%
- Fbg (72 h, time 3 day): 275.6 mg/dL
- Hb (72 h, time 3 day): 13.5 g/dL
- Ht (72 h, time 3 day): 40.1%
- Lym (72 h, time 3 day): 75.2%
- MCH (72 h, time 3 day): 22 pg
- MCHC (72 h, time 3 day): 33.8%
- MCV (72 h, time 3 day): 65.1 fL
- Mono (72 h, time 3 day): 2.8%
- Neu (72 h, time 3 day): 20.6%
- PT (72 h, time 3 day): 12 s
- Plat (72 h, time 3 day): 108.6 x10_4/uL
- RBC (72 h, time 3 day): 616.2 x10_4/ul
- Ret (72 h, time 3 day): 6.5%
- WBC (72 h, time 3 day): 81.9 x10_2/uL
- KIDNEY_L (72 h, time 3 day): 0.9 g
- KIDNEY_R (72 h, time 3 day): 0.9 g
- KIDNEY_TOTAL (72 h, time 3 day): 1.8 g
- LIVER (72 h, time 3 day): 11.1 g
- A/G (72 h, time 3 day): 0.9
- ALP (72 h, time 3 day): 1849 IU/L
- ALT (72 h, time 3 day): 50.8 IU/L
- AST (72 h, time 3 day): 75.8 IU/L
- BUN (72 h, time 3 day): 15.6 mg/dL
- CRE (72 h, time 3 day): 0.2 mg/dL
- Ca (72 h, time 3 day): 11 mg/dL
- Cl (72 h, time 3 day): 107.2 meq/L
- DBIL (72 h, time 3 day): 0.012 mg/dL
- GLC (72 h, time 3 day): 188.8 mg/dL
- IP (72 h, time 3 day): 7.5 mg/dL
- K (72 h, time 3 day): 4.3 meq/L
- LDH (72 h, time 3 day): 64.8 IU/L
- Na (72 h, time 3 day): 143.8 meq/L
- PL (72 h, time 3 day): 136.4 mg/dL
- RALB (72 h, time 3 day): 2.7 g/dL
- TBIL (72 h, time 3 day): 0.024 mg/dL
- TC (72 h, time 3 day): 78.4 mg/dL
- TG (72 h, time 3 day): 73.2 mg/dL
- TP (72 h, time 3 day): 5.8 g/dL
- gamma-GTP (72 h, time 3 day): 1 IU/L
- TERMINAL_BW ([…], time 7 day): 270.7 g
- TERMINAL_BW ([…], time 14 day): 321.2 g
- TERMINAL_BW ([…], time 28 day): 415.3 g
- APTT ([…], time 7 day): 18.3 s
- Bas ([…], time 7 day): 0%
- Eos ([…], time 7 day): 0.8%
- Fbg ([…], time 7 day): 275.8 mg/dL
- Hb ([…], time 7 day): 13.2 g/dL
- Ht ([…], time 7 day): 39.2%
- Lym ([…], time 7 day): 79.2%
- MCH ([…], time 7 day): 20.7 pg
- MCHC ([…], time 7 day): 33.7%
- MCV ([…], time 7 day): 61.4 fL
- Mono ([…], time 7 day): 3%
- Neu ([…], time 7 day): 16.2%
- PT ([…], time 7 day): 11.8 s
- Plat ([…], time 7 day): 118.3 x10_4/uL
- RBC ([…], time 7 day): 639.2 x10_4/ul
- Ret ([…], time 7 day): 6.4%
- WBC ([…], time 7 day): 84.5 x10_2/uL
- APTT ([…], time 14 day): 16.3 s
- Bas ([…], time 14 day): 0%
- Eos ([…], time 14 day): 0.8%
- Fbg ([…], time 14 day): 282.2 mg/dL
- Hb ([…], time 14 day): 14.6 g/dL
- Ht ([…], time 14 day): 42.3%
- Lym ([…], time 14 day): 83.4%
- MCH ([…], time 14 day): 20.9 pg
- MCHC ([…], time 14 day): 34.6%
- MCV ([…], time 14 day): 60.3 fL
- Mono ([…], time 14 day): 1.6%
- Neu ([…], time 14 day): 13.6%
- PT ([…], time 14 day): 11.7 s
- Plat ([…], time 14 day): 118.8 x10_4/uL
- RBC ([…], time 14 day): 700.4 x10_4/ul
- Ret ([…], time 14 day): 4.7%
- WBC ([…], time 14 day): 92.5 x10_2/uL
- APTT ([…], time 28 day): 17.5 s
- Bas ([…], time 28 day): 0%
- Eos ([…], time 28 day): 1.2%
- Fbg ([…], time 28 day): 274.6 mg/dL
- Hb ([…], time 28 day): 15.1 g/dL
- Ht ([…], time 28 day): 43%
- Lym ([…], time 28 day): 77.6%
- MCH ([…], time 28 day): 19.7 pg
- MCHC ([…], time 28 day): 35.1%
- MCV ([…], time 28 day): 56.2 fL
- Mono ([…], time 28 day): 2.4%
- Neu ([…], time 28 day): 18.6%
- PT ([…], time 28 day): 11.7 s
- Plat ([…], time 28 day): 106.6 x10_4/uL
- RBC ([…], time 28 day): 765 x10_4/ul
- Ret ([…], time 28 day): 2.5%
- WBC ([…], time 28 day): 77 x10_2/uL
- KIDNEY_L ([…], time 7 day): 1.1 g
- KIDNEY_R ([…], time 7 day): 1.1 g
- KIDNEY_TOTAL ([…], time 7 day): 2.1 g
- KIDNEY_L ([…], time 14 day): 1.2 g
- KIDNEY_R ([…], time 14 day): 1.2 g
- KIDNEY_TOTAL ([…], time 14 day): 2.4 g
- KIDNEY_L ([…], time 28 day): 1.3 g
- KIDNEY_R ([…], time 28 day): 1.3 g
- KIDNEY_TOTAL ([…], time 28 day): 2.7 g
- LIVER ([…], time 7 day): 13.8 g
- LIVER ([…], time 14 day): 16.1 g
- LIVER ([…], time 28 day): 17.9 g
- A/G ([…], time 7 day): 0.9
- ALP ([…], time 7 day): 1690.2 IU/L
- ALT ([…], time 7 day): 50 IU/L
- AST ([…], time 7 day): 68.4 IU/L
- BUN ([…], time 7 day): 17.8 mg/dL
- CRE ([…], time 7 day): 0.2 mg/dL
- Ca ([…], time 7 day): 11.5 mg/dL
- Cl ([…], time 7 day): 106.4 meq/L
- DBIL ([…], time 7 day): 0.016 mg/dL
- GLC ([…], time 7 day): 183.8 mg/dL
- IP ([…], time 7 day): 7.2 mg/dL
- K ([…], time 7 day): 4.4 meq/L
- LDH ([…], time 7 day): 74.2 IU/L
- Na ([…], time 7 day): 143.4 meq/L
- PL ([…], time 7 day): 150.8 mg/dL
- RALB ([…], time 7 day): 2.8 g/dL
- TBIL ([…], time 7 day): 0.028 mg/dL
- TC ([…], time 7 day): 84.2 mg/dL
- TG ([…], time 7 day): 75.2 mg/dL
- TP ([…], time 7 day): 6 g/dL
- gamma-GTP ([…], time 7 day): 1 IU/L
- A/G ([…], time 14 day): 0.9
- ALP ([…], time 14 day): 1402 IU/L
- ALT ([…], time 14 day): 41 IU/L
- AST ([…], time 14 day): 61 IU/L
- BUN ([…], time 14 day): 14.2 mg/dL
- CRE ([…], time 14 day): 0.2 mg/dL
- Ca ([…], time 14 day): 11.3 mg/dL
- Cl ([…], time 14 day): 106.8 meq/L
- DBIL ([…], time 14 day): 0.008 mg/dL
- GLC ([…], time 14 day): 180.4 mg/dL
- IP ([…], time 14 day): 6.9 mg/dL
- K ([…], time 14 day): 4.1 meq/L
- LDH ([…], time 14 day): 65.8 IU/L
- Na ([…], time 14 day): 143.6 meq/L
- PL ([…], time 14 day): 140.8 mg/dL
- RALB ([…], time 14 day): 2.8 g/dL
- TBIL ([…], time 14 day): 0.056 mg/dL
- TC ([…], time 14 day): 83 mg/dL
- TG ([…], time 14 day): 87.6 mg/dL
- TP ([…], time 14 day): 6.1 g/dL
- gamma-GTP ([…], time 14 day): 1 IU/L
- A/G ([…], time 28 day): 0.8
- ALP ([…], time 28 day): 1043 IU/L
- ALT ([…], time 28 day): 40.6 IU/L
- AST ([…], time 28 day): 60 IU/L
- BUN ([…], time 28 day): 15.4 mg/dL
- CRE ([…], time 28 day): 0.3 mg/dL
- Ca ([…], time 28 day): 10.6 mg/dL
- Cl ([…], time 28 day): 106.6 meq/L
- DBIL ([…], time 28 day): 0.01 mg/dL
- GLC ([…], time 28 day): 176.6 mg/dL
- IP ([…], time 28 day): 5.8 mg/dL
- K ([…], time 28 day): 4.2 meq/L
- LDH ([…], time 28 day): 53 IU/L
- Na ([…], time 28 day): 142.8 meq/L
- PL ([…], time 28 day): 137.4 mg/dL
- RALB ([…], time 28 day): 2.8 g/dL
- TBIL ([…], time 28 day): 0.06 mg/dL
- TC ([…], time 28 day): 71.2 mg/dL
- TG ([…], time 28 day): 117 mg/dL
- TP ([…], time 28 day): 6.3 g/dL
- gamma-GTP ([…], time 28 day): 1 IU/L
